This is an account of results in patent US11414436B2, “Non-coordinating anion type activators containing cation having large alkyl groups” (ExxonMobil Chemical Patents Inc., priority 2018, dated 2022).

The nature of experiment [1]: Ethylene-octene copolymerization in parallel pressure reactor, non-metallocene catalyst CAT-4. Conditions: catalyst CAT-4 20 nmol; activator 1.1 equiv; 100° C.; 135 psi; 1-octene 100 uL; TNOAL 0.5 umol. How it is done:
(§1) Solutions of the metal complexes and activators were prepared in a drybox using toluene or methylcyclohexane. Concentrations were typically 0.2 mmol/L. Tri-n-octylaluminum (TNOAL, neat, AkzoNobel) was typically used as a scavenger. Concentration of the TNOAL solution in toluene ranged from 0.5 to 2.0 mmol/L.
(§2) Polymerizations were carried out in a parallel pressure reactor, as generally described in U.S. Pat. Nos. 6,306,658; 6,455,316; 6,489,168; WO 00/09255; and Murphy, V. et al. (2003) “A Fully Integrated High-Throughput Screening Methodology for the Discovery of New Polyolefin Catalysts: Discovery of a New Class of High Temperature Single-Site Group (IV) Copolymerization Catalysts,” J. Am. Chem. Soc., v. 125, pp. 4306-4317, each of which is fully incorporated herein by reference. […] Although the specific quantities, temperatures, solvents, reactants, reactant ratios, pressures, and other variables are frequently changed from one polymerization run to the next, the following describes a typical polymerization performed in a parallel pressure reactor.
(§3) Ethylene-Octene Copolymerization (EO).
(§4) A pre-weighed glass vial insert and disposable stirring paddle were fitted to each reaction vessel of the reactor, which contains 48 individual reaction vessels. The reactor was then closed and purged with ethylene. Each vessel was charged with enough solvent (typically isohexane) to bring the total reaction volume, including the subsequent additions, to the desired volume, typically 5 mL. 1-octene, if required, was injected into the reaction vessel and the reactor was heated to the set temperature and pressurized to the predetermined pressure of ethylene, while stirring at 800 rpm. The aluminum compound (such as tri-n-octylaluminum) in toluene was then injected as scavenger followed by addition of the activator solution (typically 1.0-1.2 molar equivalents).
(§5) The catalyst (and activator solutions for Run A) were all prepared in toluene. The catalyst solution (typically 0.020-0.080 μmol of metal complex) was injected into the reaction vessel and the polymerization was allowed to proceed until a pre-determined amount of ethylene (quench value typically 20 psi) had been used up by the reaction. Alternatively, the reaction may be allowed to proceed for a set amount of time (maximum reaction time typically 30 minutes). Ethylene was added continuously (through the use of computer controlled solenoid valves) to the autoclaves during polymerization to maintain reactor gauge pressure (P setpt, +/−2 psig) and the reactor temperature (T) was monitored and typically maintained within +/−1° C. The reaction was quenched by pressurizing the vessel with compressed air. After the reactor was vented and cooled, the glass vial insert containing the polymer product and solvent was removed from the pressure cell and the inert atmosphere glove box, and the volatile components were removed using a Genevac HT-12 centrifuge and Genevac VC3000D vacuum evaporator operating at elevated temperature and reduced pressure. The vial was then weighed to determine the yield of the polymer product. The resultant polymer was analyzed by Rapid GPC (see below) to determine the molecular weight, by FT-IR (see below) to determine percent octene incorporation, and by DSC (see below) to determine melting point (Tm).
(§6) Equivalence is determined based on the mole equivalents relative to the moles of the transition metal in the catalyst complex.
(§7) Activators of the present disclosure can also be used for activating non-metallocene catalysts for polymerization of olefins. Table 4 illustrates copolymerization of ethylene and octene using activators of the present disclosure and non-metallocene catalysts (CAT-1, CAT-2, CAT-3, and CAT-4).

Experiment [2] is described as follows: Ethylene-octene copolymerization in parallel pressure reactor, non-metallocene catalyst CAT-3. The conditions noted are these: catalyst CAT-3 20 nmol; activator 1.1 equiv; 100° C.; 135 psi; 1-octene 100 uL; TNOAL 0.5 umol. The procedure:
as §1, §2, §3, §4, §5, §6, §7

Experiment [3] is described as follows: Ethylene homopolymerization (PE) in parallel pressure reactor, MCN-1. The conditions noted are these: MCN-1 = 20 nmol, activator = 22 nmol, 80° C., 75 PSI. How it is done:
Ethylene homopolymerization (PE).
A series of ethylene polymerizations were performed in the parallel pressure reactor sinilar to the procedure described above. In these studies rac-dimethylsilyl- bis(indenyl)hafnium dimethyl (MCN-1) was used along with ammonium borate activators .

The nature of experiment [4]: RUN B: ethylene-octene polymerization in parallel pressure reactor, activator diluent toluene or methylcyclohexane. The conditions noted are these: ethylene-octene copolymerization. The procedure:
RUN B: Polymerization in Parallel Pressure Reactor.
A series of ethylene-octene polymerizations were performed in the parallel pressure reactor according to the procedure described above. […] In a typical experiment an automated syringe was used to introduce into the reactor the following reagents, if utilized, in the following order: isohexane (0.35 mL), an isohexane solution of TNOAL scavenger (0.005 M, 60 μL), additional isohexane (0.35 mL), a toluene solution of the respective polymerization catalyst (150 μL, 0.4 mM, 20 nm [cat]/100 μL [toluene]), additional isohexane (0.35 mL), a toluene or methylcyclohexane solution of the respective activator (150 μL, 0.4 mM, (20 nm [act]/100 μL[ diluent])), then additional isohexane so that the total solvent volume for each run was 5 mL. Catalyst and activator were used in a 1:1 ratio. Each reaction was performed at a specified temperature range between 50 and 120° C., typically 95° C., while applying about 100 psig of ethylene (monomer) gas. Each reaction was allowed to run for about 1 hour (˜3600 seconds) or until approximately 20 psig of ethylene gas uptake was observed, at which point the reactions were quenched with air (˜300 psig). When sufficient polymer yield was attained (e.g., at least ˜10 mg), the polyethylene product was analyzed by Rapid GPC, described below.
In a typical experiment, the anilinium borate activators were combined with toluene or methylcyclohexane as diluent and introduced to the parallel, pressure reactor via syringe. By this mechanism of activator introduction, only well dissolved activators could be delivered to the reactor providing a means to discriminate between the polymerization performance of long chain soluble anilinium borates vs. conventional anilinium borates. Following addition of activator, the catalyst Cat 1 was introduced, via syringe as well-dissolved toluene solution and the polymerization was conducted per the methodology described above.

Experiment [5] can be described thus: Ethylene-octene copolymerization (EO) in parallel pressure reactor, MCN-1 (Table 6). Conditions: MCN-1 = 20 nmol, activator = 22 nmol, 1-octene 100 μL, 80° C., 75 PSI. The procedure: as §3, §4, §5
A series of ethylene-octene polymerizations were performed in the parallel pressure reactor according to a similar procedure as described above. In these studies rac-dimethylsilyl-bis(indenyl)hafnium dimethyl (MCN-1) was used along with ammonium borate activators.

The nature of experiment [6]: Ethylene-octene copolymerization in parallel pressure reactor, non-metallocene catalyst CAT-1. Conditions: catalyst CAT-1 20 nmol; activator 1.1 equiv; 100° C.; 135 psi; 1-octene 100 uL; TNOAL 0.5 umol. How it is done:
as §1, §2, §3, §4, §5, §6, §7

Experiment [7] is described as follows: Ethylene-octene copolymerization in parallel pressure reactor, non-metallocene catalyst CAT-2. Conditions: catalyst CAT-2 20 nmol; activator 1.1 equiv; 100° C.; 135 psi; 1-octene 100 uL; TNOAL 0.5 umol. The procedure: as §1, §2, §3, §4, §5, §6, §7
Experiment [8] can be described thus: Propylene homopolymerization in parallel pressure reactor, MCN-1 with ammonium borate activators.
Excerpt: Polymerization in Parallel Pressure Reactor
Solvents, polymerization-grade toluene, and isohexane were supplied by ExxonMobil Chemical Company and purified by passing through a series of columns: two 500 cc Oxyclear cylinders in series from Labclear (Oakland, Calif.), followed by two 500 cc columns in series packed with dried 3 Å mole sieves (8-12 mesh; Aldrich Chemical Company), and two 500 cc columns in series packed with dried 5 Å mole sieves (8-12 mesh; Aldrich Chemical Company). 1-octene (C8) and 1-hexene (C6) (98%, Aldrich Chemical Company) were dried by stirring over NaK overnight followed by filtration through basic alumina (Aldrich Chemical Company, Brockman Basic 1).
as §1, §2
Catalyst systems dissolved in solution were used in the polymerization examples below, unless specified otherwise.
RUN A: Propylene Homopolymerization (PP).
The reactor was prepared as described above and purged with propylene. For the examples in Table 2, the catalyst and activator solutions were prepared in toluene. […] Isohexane was then injected into each vessel at room temperature followed by a predetermined amount of propylene gas. The reactor was heated to the set temperature while stirring at 800 rpm, and the scavenger, activator and catalyst solutions were injected sequentially to each vessel. The polymerization was allowed to proceed as described previously.
A series of propylene polymerizations were performed in parallel pressure reactors (PPRs) developed by Symyx Technologies, Inc. In these polymerizations, the metallocene rac-dimethylsilyl-bis(indenyl)hafnium dimethyl (MCN-1) was used along with several different ammonium borate activators. Polymerizations were performed at 85° C. and 100° C.
Propylene homopolymerization (PP).
A series of propylene polymerizations were performed in the parallel pressure reactor similar to the procedure described above. In these studies rac-dimethylsilyl-bis(indenyl)hafnium dimethyl (MCN-1) was used along with ammonium borate activators.

Several values for one entry are separate records, joined by “and”; a condition that tells them apart may be missing. Equal entries are not always repeated.

Take “N,N-Dimethylanilinium tetrakis(pentafluorophenyl)borate [DMAH-BF20, reference compound]”: the “activity” value in experiment [1] is 76 kg/mmol/h and 45 kg/mmol/h; in experiment [2] it was 819 kg/mmol/h and 698 kg/mmol/h; in experiment [3], 288.7 kg/mmol/h and 407.1 kg/mmol/h; in experiment [4] (Cat 1 (MCN-1), activator diluent Toluene, listed as C1), 764.2 kg/mmol/h and 675.0 kg/mmol/h and 659.1 kg/mmol/h and 680.5 kg/mmol/h; in experiment [5] it was 644.4 kg/mmol/h and 509.4 kg/mmol/h; in experiment [6], 2977 kg/mmol/h and 2469 kg/mmol/h. Also, the “activity” value in experiment [7] is 1140 kg/mmol/h and 916 kg/mmol/h. Moreover, the “quantity of polymer obtained with methylcyclohexane as diluent” value in experiment [4] (Cat 1, activator in methylcyclohexane) was “insufficient for analysis”.
Take “N-methyl-4-nonadecyl-N-octadecylanilinium tetrakis(pentafluorophenyl)borate [NOMAH-BF20]”: the “activity” value in experiment [3] was 215.4 kg/mmol/h and 237.5 kg/mmol/h and 399.2 kg/mmol/h and 340.1 kg/mmol/h; in experiment [5], 430.9 kg/mmol/h and 414.1 kg/mmol/h and 478.7 kg/mmol/h and 409.6 kg/mmol/h.
Turning to “N-methyl-4-nonadecyl-N-octadecylanilinium tetrakis(perfluoronaphthalen-2-yl)borate [NOMAH-BF28]”, the “activity” value is 213.1 kg/mmol/h and 202.3 kg/mmol/h and 173.6 kg/mmol/h and 272.1 kg/mmol/h in experiment [3]; 141 kg/mmol/h and 208 kg/mmol/h and 193 kg/mmol/h and 210 kg/mmol/h and 181 kg/mmol/h and 178 kg/mmol/h and 223 kg/mmol/h and 207 kg/mmol/h in experiment [8] (propylene 150 psi, 100° C., MCN-1 = 30 nmol, activator = 33 nmol, isohexane, TNOAL 500 nmol); 302.1 kg/mmol/h and 321.1 kg/mmol/h and 300.0 kg/mmol/h and 345.5 kg/mmol/h in experiment [5]. For the same substance, the “average catalyst activity, comparison of the four activators (FIG. 6)” value in experiment [8] (MCN-1, polypropylene at 100° C., Table 7 runs) is given as “highest average activities”.
